# Values of other authors in article PMC2750848 (Journal of medicinal chemistry, 2008).
# Marks after values point to notes of the source that are not given here.
# Tested on: M. tuberculosis H37Rv
substance,measurement,setting,value
5′-O-[N-(salicyl)sulfamoyl]adenosine [Compound 4],MIC99 (Fe-deficient),Fe-deficient,0.39 ^i µM
same,MIC99 (Fe-rich),Fe-rich,1.56 ^i µM
